Results taken from patent US20060257411A1 (priority 2005, published 2006).
Where two headings read alike, the source gives them in different places.

Experiments:
peritoneal macrophages = assay type: cell-based, mouse
[1] = tested on: MyD88-independent pathway (TRIF-TRAM, IRF-3) in peritoneal macrophages; assay type: cell-based, mouse
[2] = tested on: vesicular stomatitis virus (VSV); assay type: cell-based; conditions: Heedless or Tlr4 Lps-d/Lps-d macrophages treated with interferon before infection (4 h)
[3] = macrophages from homozygous Heedless mice compared with wild-type, 4 h incubation

MALP-2
TNF production in response to inducer (peritoneal macrophages): partial impairment

Pam2CSK4
TNF production in response to inducer (peritoneal macrophages; [3]): partial impairment

Pam3CSK4
TNF production in response to inducer (peritoneal macrophages; [3]): normal

lipid A
formation of the IRF-3 phosphodimer [1]: not detected | signaling via the MyD88-independent pathway (type I IFN production) [1]: prevented | TNF production in response to lipid A (peritoneal macrophages): perfectly able to produce TNF

lipoteichoic acid
TNF production in response to inducer (peritoneal macrophages): partial impairment

poly IC
TNF production in response to inducer (peritoneal macrophages; [3]): normal

B1: type I interferon: recombinant murine IFN-β from R&D systems used to pretreat macrophages (protein, UniProt P01575 22-182, looked up)
Interferon beta: INYKQLQLQERTNIRKCQELLEQLNGKINLTYRADFKIPMEMTEKMQKSYTAFAIQEMLQNVFLVFRNNFSSTGWNETIVVRLLDELHQQTVFLKTVLEEKQEERLTWEMSSTALHLKSYYWRVQRYLKLMKYNSYAWMVVRAEIFRNFLIIRRLTRNFQN
lytic effect of VSV on macrophages [2]: prevented
